Measurements as given in patent publication US20060178513A1, “Pyridinylanilides” (priority 2003, published 2006).
Read-outs that look alike come from different tables or passages of the source.

Tests used:
Podosphaera leucotricha = assay: Podosphaera test (apple)/protective; format: in vivo; settings: topical, 240 h, apple plants, protective, application rate 100 g/ha, evaluation 10 days after inoculation, read-out: Efficacy in %
Procedure: [table] To produce a suitable preparation of active compound, 1 part by weight of active compound is mixed with the stated amounts of solvent and emulsifier, and the concentrate is diluted with water to the desired concentration. To test for protective activity, young plants are sprayed with the preparation of active compound at the stated application rate. After the spray coating has dried on, the plants are inoculated with an aqueous spore suspension of the apple mildew pathogen Podosphaera leucotricha. The plants are then placed in a greenhouse at about 23° C. and a relative atmospheric humidity of about 70%. Evaluation is carried out 10 days after the inoculation. 0% means an efficacy which corresponds to that of the control, whereas an efficacy of 100% means that no infection is observed.

[1] = logP determination by HPLC (reversed-phase C 18), EEC Directive 79/831 Annex V.A8; format: physicochemical
Procedure: The logP values given in the Preparation Examples were determined in accordance with EEC Directive 79/831 Annex V.A8 by HPLC (High Performance Liquid Chromatography) using a reversed-phase column (C 18). Temperature: 43° C. Mobile phases for the determination in the acidic range: 0.1% aqueous phosphoric acid, acetonitrile; linear gradient from 10% acetonitrile to 90% acetonitrile. Calibration was carried out using straight-chain alkan-2-ones (having 3 to 16 carbon atoms) with known logp values (determination of the logp values by the retention times using linear interpolation between two successive alkanones).

Pyrenophora teres = Pyrenophora teres test (barley)/protective; format: in vivo; settings: barley plants, protective, application rate 500 g/ha, evaluation 8 days after inoculation
Procedure: (§1) [table] To produce a suitable preparation of active compound, 1 part by weight of active compound is mixed with the stated amount of solvent and emulsifier, and the concentrate is diluted with water to the desired concentration. To test for protective activity, young plants are sprayed with the preparation of active compound at the stated application rate. After the spray coating has dried on, the plants are sprayed with a conidia suspension of Pyrenophora teres. The plants remain in an incubation cabin at 20° C. and 100% relative atmospheric humidity for 48 hours. The plants are then placed in a greenhouse at a temperature of about 20° C. and a relative atmospheric humidity of about 80%. Evaluation is carried out 8 days after the inoculation. 0% means an efficacy which corresponds to that of the control, whereas an efficacy of 100% means that no infection is observed.

Puccinia recondita = assay: Puccinia test (wheat)/protective; format: in vivo; settings: wheat plants, protective, application rate 500 g/ha, evaluation 10 days after inoculation
Procedure: as §1, with “stated amounts” for “stated amount”, “of Puccinia recondita.” for “of Pyrenophora teres.”, “of approximately” for “of about”, “of 80% to promote the development of rust pustules.” for “of about 80%.”, “out 10” for “out 8”

Alternaria solani = assay: Alternaria test (tomato)/protective; format: in vivo; settings: tomato plants, protective, application rate 750 g/ha, evaluation 7 days after inoculation
Procedure: [table] To produce a suitable preparation of active compound, 1 part by weight of active compound is mixed with the stated amounts of solvent and emulsifier, and the concentrate is diluted with water to the desired concentration. To test for protective activity, young tomato plants are sprayed with the preparation of active compound at the stated application rate. 1 day after the treatment, the plants are inoculated with a spore suspension of Alternaria solani and then remain at 100% rel. humidity and 20° C. for 24 h. The plants then remain at 96% rel. atmospheric humidity and a temperature of 20° C. Evaluation was carried out 7 days after the inoculation. 0% means an efficacy which corresponds to that of the control, whereas an efficacy of 100% means that no infection is observed.

Venturia inaequalis = assay: Venturia Test (Apple)/protective; format: in vivo; settings: topical, 240 h, apple plants, protective, application rate 100 g/ha, evaluation 10 days after inoculation, read-out: Efficacy in %
Procedure: [table] To produce a suitable preparation of the active compound, 1 part by weight of active compound is mixed with the stated amounts of solvents and emulsifier, and the concentrate is diluted with water to the desired concentration. To test for protective activity, young plants are sprayed with the preparation of active compound at the stated application rate. After the spray coating has dried on, the plants are inoculated with an aqueous conidia suspension of the apple scab pathogen Venturia inaequalis and then remain in an incubation cabin at about 20° C. and 100% relative atmospheric humidity for 1 day. The plants are then placed in a greenhouse at about 21° C. and a relative atmospheric humidity of about 90%. Evaluation is carried out 10 days after the inoculation. 0% means an efficacy which corresponds to that of the control, whereas an efficacy of 100% means that no infection is observed.

[2] = reversed-phase HPLC column (C 18), HPLC, reversed-phase C 18, 43° C., acidic range (0.1% aqueous phosphoric acid/acetonitrile), read-out: logP
[3] = reversed-phase HPLC column (C 18), pH 2.3, HPLC, reversed-phase C 18, 43° C., read-out: log P (pH 2.3)

Structure (SMILES)	pest or weed control at 100 g/ha (Podosphaera leucotricha)	chromatographic logP [1, 2]	pest or weed control at 100 g/ha (Venturia inaequalis)	other results
Cn1cc(C(=O)Nc2ccccc2-c2ccc(Cl)nc2)c(C(F)F)n1 [1-6-7]	98%	2.1	–	–
Cc1nn(C)c(F)c1C(=O)Nc1ccccc1-c1ccnc(Br)c1 [1-7-4]	–	2.02	–	Efficacy in % (Pyrenophora teres): 93%; Efficacy in % (Puccinia recondita): 100%
O=C(Nc1ccccc1-c1ccnc(Br)c1)c1ccccc1C(F)(F)F [1-7-5]	–	2.85	–	Efficacy in % (Pyrenophora teres): 93%
Cn1cc(C(=O)Nc2ccccc2-c2ccnc(Br)c2)c(C(F)F)n1 [1-7-6]	–	2.13	–	Efficacy in % (Pyrenophora teres): 93%; Efficacy in % (Puccinia recondita): 100%; Efficacy in % (Alternaria solani): 95%
Cn1nc(C(F)(F)F)c(C(=O)Nc2ccccc2-c2cc(Cl)nc(Cl)c2)c1F [1-7-9]	–	–	100%	–
Cc1nc(C(F)(F)F)c(C(=O)Nc2ccccc2-c2cc(Cl)nc(Cl)c2)s1 [1-7-10]	100%	3.27	100%	Efficacy in % (Alternaria solani): 100%
O=C(Nc1ccccc1-c1ncc(C(F)(F)F)cc1Cl)c1ccccc1C(F)(F)F [1-8-1]	100%	3.59	100%	Efficacy in % (Puccinia recondita): 100%; chromatographic logP [1, 3]: 3.58
Cc1occc1C(=O)Nc1ccccc1-c1ncc(C(F)(F)F)cc1Cl [1-8-2]	–	3.44	–	Efficacy in % (Pyrenophora teres): 100%; Efficacy in % (Puccinia recondita): 100%; Efficacy in % (Alternaria solani): 100%
Cc1ccsc1C(=O)Nc1ccccc1-c1ncc(C(F)(F)F)cc1Cl [1-8-3]	100%	3.83	100%	Efficacy in % (Pyrenophora teres): 100%; Efficacy in % (Puccinia recondita): 100%; Efficacy in % (Alternaria solani): 95%
O=C(Nc1ccccc1-c1ccc(C(F)(F)F)cn1)c1ccccc1C(F)(F)F [1-8-9]	97%	4.13	–	Efficacy in % (Alternaria solani): 95%
O=C(Nc1ccccc1-c1ccc(Cl)cn1)c1cccnc1Cl [1-8-10]	100%	2.95	100%	Efficacy in % (Pyrenophora teres): 100%; Efficacy in % (Puccinia recondita): 94%
Cc1nn(C)c(F)c1C(=O)Nc1ccccc1-c1ccc(Cl)cn1 [1-8-11]	95%	3.06	100%	–
O=C(Nc1ccccc1-c1ccc(Cl)cn1)c1ccccc1C(F)(F)F [1-8-12]	92%	4	100%	–
Cn1cc(C(=O)Nc2ccccc2-c2ccc(Cl)cn2)c(C(F)F)n1 [1-8-14]	–	3.05	100%	Efficacy in % (Pyrenophora teres): 94%
CON=Cc1ccc(-c2ccccc2NC(=O)c2cccnc2Cl)nc1 [1-8-15, 2-chloro-N-{2-[5-(E)methoxyimino-methyl)-pyridin-2-yl]-phenyl}-nicotinamide]	–	2.95	–	chromatographic logP [1, 3]: 2.95
O=C(Nc1ccccc1-c1ncc(C(F)(F)F)cc1Cl)c1ccccc1Cl [1-8-20]	100%	3.45	–	–
O=C(Nc1ccccc1-c1ncc(C(F)(F)F)cc1Cl)c1ccccc1Br [1-8-21]	100%	3.49	–	–
O=C(Nc1ccccc1-c1ncc(C(F)(F)F)cc1Cl)C1=C(C(F)(F)F)OCCS1 [1-8-25]	–	3.43	99%	–
Cn1cc(C(=O)Nc2ccccc2-c2ncc(C(F)(F)F)cc2Cl)c(C(F)F)n1 [1-8-27]	97%	2.91	100%	–
Cc1nc(C(F)(F)F)c(C(=O)Nc2ccccc2-c2ncc(C(F)(F)F)cc2Cl)s1 [1-8-28]	96%	3.48	98%	–
Cn1cc(C(=O)Nc2ccccc2-c2ncc(C(F)(F)F)cc2Cl)c(C(F)(F)F)n1 [1-8-29]	–	3.13	98%	–
Cn1cc(C(=O)Nc2ccccc2-c2ncc(C(F)(F)F)cc2Cl)c(I)n1 [1-8-30]	–	2.92	92%	–
Nc1ccccc1-c1ncc(C(F)(F)F)cc1Cl [III-1, 2-[3-chloro-5-(trifluoromethyl)-2-pyridinyl]aniline]	–	–	–	chromatographic logP [1, 3]: 2.79
CO/N=C/c1ccc(-c2ccccc2N)nc1 [III-2, 6-(2-amino-phenyl)-pyridine-3-carbaldehyde (E)-O-methyl-oxime]	–	–	–	chromatographic logP [1, 3]: 1.59
O=C(Nc1ccccc1I)c1ccccc1C(F)(F)F [IV-1]	–	–	–	chromatographic logP [1, 3]: 2.98
CO/N=C/c1ccc(Br)nc1 [VII-1, 6-bromo-pyridine-3-carbaldehyde (E)-O-methyl-oxime]	–	–	–	chromatographic logP ([1]; pH 2.3): 2.16
